Measured values: patent US8946142B2, “Beta-arrestin effectors and compositions and methods of use thereof” (Trevena, Inc., priority 2012, dated 2015)
Where two headings read alike, the source gives them in different places. Where a SMILES comes first, the peptide text is derived from it. Bridges are numbered along the chain shown (N, C = ends). [ ]: non-standard residue; d: D form. The star is where a group is joined. Val(3-OH) = CC(C)(O)[C@H](N)C(=O)O; Tle = CC(C)(C)[C@H](N)C(=O)O; Ac6c = NC1(C(=O)O)CCCCC1; NHCH2tBu = CC(C)(C)CN*; Aib = CC(C)(N)C(=O)O; Sar = CNCC(=O)O

Columns and labels:
rat AT1aR = biological target: T1, rat AT1aR (Rattus norvegicus, UniProt P25095); experiment: beta-arrestin2 recruitment assay (PathHunter), rat AT1aR; type: cell-based; conditions: for Emax: 1 h, read-out: Span (relative to hAngII)
T1 sequence (P25095 1-359): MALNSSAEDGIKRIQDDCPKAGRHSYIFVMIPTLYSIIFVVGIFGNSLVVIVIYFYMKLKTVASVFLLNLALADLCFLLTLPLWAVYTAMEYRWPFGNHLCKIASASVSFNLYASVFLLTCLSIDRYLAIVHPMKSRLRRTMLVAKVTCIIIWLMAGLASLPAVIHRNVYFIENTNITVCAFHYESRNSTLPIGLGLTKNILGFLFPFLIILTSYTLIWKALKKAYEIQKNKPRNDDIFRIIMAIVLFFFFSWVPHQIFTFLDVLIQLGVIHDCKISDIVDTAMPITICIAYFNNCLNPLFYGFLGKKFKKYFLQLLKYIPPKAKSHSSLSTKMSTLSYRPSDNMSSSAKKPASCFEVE
Experimental: (§1) The proximal event in β-arrestin function mediated by GPCRs is recruitment to receptors following ligand binding and receptor phosphorylation by GRK's. Thus, the measure of β-arrestin recruitment was used to determine ligand efficacy for β-arrestin function.
(§2) B-arrestin-2 recruitment to the human and rat angiotensin 2 type 1 receptor (human AT1R and rat AT1aR, respectively) was measured with the PathHunter™ μl-arrestin assay (DiscoveRx Corporation, Fremont Calif.). Cells, plasmid(s), and detection reagent(s) were purchased from DiscoveRx, and assays were performed per manufacturer's instructions. Human AT1R and rat AT1aR were cloned into the pCMV-ProLink vector, verified by sequencing, and transfected into PathHunter β-arrestin HEK293 cells. Stably transfected clonal cell lines were selected with Hygromycin and G418. These clonal cell lines were used for all experiments.
(§3) For assays, 4,000-8,000 cells were seeded per well in 384-well microplates “HiBase” small-volume plate in volumes of 20 uL and grown overnight in the incubator (37° C., 5% CO2, saturated humidity). Peptides were dissolved in DMSO to a concentration of 10 mM. Peptides were then further diluted in assay buffer (Hank's balanced salt solution with 20 mM HEPES) to add peptide to the cells to reach final concentrations ranging from 100 μM to 1 pM. Cells were then incubated for 60 minutes at 37° C. in 5% CO2, followed by addition of 2 μL of PathHunter Detection Reagent to each well. The microplates were then incubated at room temperature for 60 minutes, and then luminescence was measured using a PHERAstar Plus microplate reader from BMG Labtech. B-arrestin-2 recruitment to receptors was measured as relative luminescence intensity expressed in arbitrary units.

human AT1R = biological target: T2, human AT1R (Homo sapiens, UniProt P30556); experiment: beta-arrestin2 recruitment assay (PathHunter), human AT1R; type: cell-based; conditions: for Emax: 1 h, read-out: Span (relative to hAngII)
T2 sequence (P30556 1-359): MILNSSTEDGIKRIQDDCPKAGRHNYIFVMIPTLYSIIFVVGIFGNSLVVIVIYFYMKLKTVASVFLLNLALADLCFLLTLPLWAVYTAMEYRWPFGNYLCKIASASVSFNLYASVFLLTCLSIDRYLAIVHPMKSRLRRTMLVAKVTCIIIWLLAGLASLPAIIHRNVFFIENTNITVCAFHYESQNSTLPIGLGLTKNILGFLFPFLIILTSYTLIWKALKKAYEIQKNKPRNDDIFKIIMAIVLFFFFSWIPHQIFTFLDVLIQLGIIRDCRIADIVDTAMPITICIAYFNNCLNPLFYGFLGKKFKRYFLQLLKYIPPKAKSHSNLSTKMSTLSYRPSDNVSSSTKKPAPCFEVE
Experimental: as §1, §2, §3

Row | Compound | Emax (rat AT1aR) | EC50 (rat AT1aR; read-out: EC50) | EC50 (rat AT1aR; read-out: pEC50 (converted)) | Emax (human AT1R) | EC50 (human AT1R; read-out: EC50) | EC50 (human AT1R; read-out: pEC50 (converted))
1 | CNCC(=O)N[C@@H](CCCNC(=N)N)C(=O)N[C@H](C(=O)N[C@@H](Cc1ccc(O)cc1)C(=O)N[C@H](C(=O)N[C@@H](Cc1c[nH]cn1)C(=O)N1CCC[C@H]1C(=O)N[C@H](C(=O)O)C(C)C)C(C)(C)C)C(C)C [SEQ ID NO: 29, Sar-Arg-Val-Tyr-AA02-His-Pro-Val] (H-[Sar]RVY[Tle]HPV-OH) | < 105% | > 3.2 nM | > 3.16 nM | < 101% | > 3.2 nM | > 3.16 nM
2 | CNCC(=O)N[C@@H](CCCNC(=N)N)C(=O)N[C@H](C(=O)N[C@@H](Cc1ccc(O)cc1)C(=O)N[C@H](C(=O)N[C@@H](Cc1c[nH]cn1)C(=O)N1CCC[C@H]1C(=O)N[C@H](C(=O)O)[C@@H](C)O)C(C)(C)C)C(C)C [SEQ ID NO: 30, Sar-Arg-Val-Tyr-AA02-His-Pro-Thr] (H-[Sar]RVY[Tle]HPT-OH) | < 105% | > 3.2 nM | > 3.16 nM | < 101% | > 3.2 nM | > 3.16 nM
3 | CNCC(=O)N[C@@H](CCCNC(=N)N)C(=O)N[C@H](C(=O)N[C@@H](Cc1ccc(O)cc1)C(=O)NC1(C(=O)N[C@@H](Cc2c[nH]cn2)C(=O)N2CCC[C@H]2C(=O)N[C@H](C(=O)O)C(C)(C)O)CCCCC1)C(C)C [SEQ ID NO: 31, Sar-Arg-Val-Tyr-cyHex-His-Pro-AA03] (H-[Sar]RVY[Ac6c]HP[Val(3-OH)]-OH) | < 105% | > 3.2 nM | > 3.16 nM | < 101% | > 3.2 nM | > 3.16 nM
4 | CNCC(=O)N[C@@H](CCCNC(=N)N)C(=O)N[C@H](C(=O)N[C@@H](Cc1ccc(O)cc1)C(=O)NC1(C(=O)N[C@@H](Cc2c[nH]cn2)C(=O)N2CCC[C@H]2C(=O)NCC(=O)O)CCCCC1)C(C)C [SEQ ID NO: 32, Sar-Arg-Val-Tyr-cyHex-His-Pro-Gly] (H-[Sar]RVY[Ac6c]HPG-OH) | < 105% | > 3.2 nM | > 3.16 nM | < 101% | > 3.2 nM | > 3.16 nM
5 | CNCC(=O)N[C@@H](CCCNC(=N)N)C(=O)N[C@H](C(=O)N[C@@H](Cc1ccc(O)cc1)C(=O)NC1(C(=O)N[C@@H](Cc2c[nH]cn2)C(=O)N2CCC[C@H]2C(=O)N[C@@H](CS)C(=O)O)CCCCC1)C(C)C [SEQ ID NO: 34, Sar-Arg-Val-Tyr-cyHex-His-Pro-Cys] (H-[Sar]RVY[Ac6c]HPC-OH) | < 105% | > 3.2 nM | > 3.16 nM | < 101% | > 3.2 nM | > 3.16 nM
6 | CNCC(=O)N[C@@H](CCCNC(=N)N)C(=O)N[C@H](C(=O)N[C@@H](Cc1ccc(O)cc1)C(=O)NC1(C(=O)N[C@@H](Cc2c[nH]cn2)C(=O)N2CCC[C@H]2C(=O)NC(C)(C)C(=O)O)CCCCC1)C(C)C [SEQ ID NO: 35, Sar-Arg-Val-Tyr-cyHex-His-Pro-AA01] (H-[Sar]RVY[Ac6c]HP[Aib]-OH) | < 105% | > 3.2 nM | > 3.16 nM | < 101% | > 3.2 nM | > 3.16 nM
7 | CNCC(=O)N[C@@H](CCCNC(=N)N)C(=O)N[C@H](C(=O)N[C@@H](Cc1ccc(O)cc1)C(=O)NC1(C(=O)N[C@@H](Cc2c[nH]cn2)C(=O)N2CCC[C@H]2C(=O)N[C@@H](CC(N)=O)C(=O)O)CCCCC1)C(C)C [SEQ ID NO: 36, Sar-Arg-Val-Tyr-cyHex-His-Pro-Asn] (H-[Sar]RVY[Ac6c]HPN-OH) | < 105% | > 3.2 nM | > 3.16 nM | < 101% | > 3.2 nM | > 3.16 nM
8 | CNCC(=O)N[C@@H](CCCNC(=N)N)C(=O)N[C@H](C(=O)N[C@@H](Cc1ccc(O)cc1)C(=O)NC(C)(C)C(=O)N[C@@H](Cc1c[nH]cn1)C(=O)N1CCC[C@H]1C(=O)N[C@H](C(=O)O)[C@@H](C)O)C(C)C [SEQ ID NO: 40, Sar-Arg-Val-Tyr-AA01-His-Pro-Thr] (H-[Sar]RVY[Aib]HPT-OH) | < 105% | > 3.2 nM | > 3.16 nM | < 101% | > 3.2 nM | > 3.16 nM
9 | CNCC(=O)N[C@@H](CCCNC(=N)N)C(=O)N[C@H](C(=O)N[C@@H](Cc1ccc(O)cc1)C(=O)NC1(C(=O)N[C@@H](Cc2c[nH]cn2)C(=O)N2CCC[C@H]2C(=O)O)CCCCC1)C(C)C [SEQ ID NO: 41, Sar-Arg-Val-Tyr-cyHex-His-Pro] (H-[Sar]RVY[Ac6c]HP-OH) | < 105% | > 3.2 nM | > 3.16 nM | < 101% | > 3.2 nM | > 3.16 nM
10 | CNCC(=O)N[C@@H](CCCNC(=N)N)C(=O)N[C@H](C(=O)N[C@@H](Cc1ccc(O)cc1)C(=O)NC1(C(=O)N[C@@H](Cc2c[nH]cn2)C(=O)N2CCC[C@H]2C(=O)N[C@@H](CCC(=O)O)C(=O)O)CCCCC1)C(C)C [SEQ ID NO: 43, Sar-Arg-Val-Tyr-cyHex-His-Pro-Glu] (H-[Sar]RVY[Ac6c]HPE-OH) | < 105% | > 3.2 nM | > 3.16 nM | < 101% | > 3.2 nM | > 3.16 nM
11 | CNCC(=O)N[C@@H](CCCNC(=N)N)C(=O)N[C@H](C(=O)N[C@@H](Cc1ccc(O)cc1)C(=O)NC1(C(=O)N[C@@H](Cc2c[nH]cn2)C(=O)N2CCC[C@H]2C(=O)NCC(C)(C)C)CCCCC1)C(C)C [SEQ ID NO: 47, Sar-Arg-Val-Tyr-cyHex-His-Pro-NH-neopentyl] (H-[Sar]RVY[Ac6c]HP-NHCH2tBu) |  |  |  | < 101% | > 3.2 nM | > 3.16 nM
12 | CCNC(=O)[C@@H]1CCCN1C(=O)[C@H](Cc1c[nH]cn1)NC(=O)C1(NC(=O)[C@H](Cc2ccc(O)cc2)NC(=O)[C@@H](NC(=O)[C@H](CCCNC(=N)N)NC(=O)CNC)C(C)C)CCCCC1 [SEQ ID NO: 48, Sar-Arg-Val-Tyr-cyHex-His-Pro-NH-ethyl] (H-[Sar]RVY[Ac6c]HP-NHEt) | < 105% | > 3.2 nM | > 3.16 nM | < 101% | > 3.2 nM | > 3.16 nM
13 | CNCC(=O)N[C@@H](CCCNC(=N)N)C(=O)N[C@H](C(=O)N[C@@H](Cc1ccc(O)cc1)C(=O)NC1(C(=O)N[C@@H](Cc2c[nH]cn2)C(=O)N2CCC[C@H]2C(=O)NC)CCCCC1)C(C)C [SEQ ID NO: 49, Sar-Arg-Val-Tyr-cyHex-His-Pro-NH-methyl] (H-[Sar]RVY[Ac6c]HP-NHMe) | < 105% | > 3.2 nM | > 3.16 nM | < 101% | > 3.2 nM | > 3.16 nM
14 | CNCC(=O)N[C@@H](CCCNC(=N)N)C(=O)N[C@H](C(=O)N[C@@H](Cc1ccc(O)cc1)C(=O)NC1(C(=O)N[C@@H](Cc2c[nH]cn2)C(=O)N2CCC[C@H]2C(=O)N[C@@H](CCCCN)C(=O)O)CCCCC1)C(C)C [SEQ ID NO: 50, Sar-Arg-Val-Tyr-cyHex-His-Pro-Lys] (H-[Sar]RVY[Ac6c]HPK-OH) | < 105% | > 3.2 nM | > 3.16 nM | < 101% | > 3.2 nM | > 3.16 nM
15 | CC[C@H](C)[C@@H]1NC(=O)[C@H](NC(=O)[C@@H](NC(=O)[C@H](CCCNC(=N)N)NC(=O)CNC)C(C)C)CSSC[C@@H](C(=O)N[C@H](C)C(=O)O)NC(=O)[C@H](Cc2c[nH]cn2)NC1=O [SEQ ID NO: 52, Sar-Arg-Val-D-Cys-Ile-His-Cys-D-Ala] (H-[Sar]RV[dC]IHC[dA]-OH; disulfide 4-7; N-terminus and C-terminus assumed) | < 105% |  |  | < 101% |  | 
